# Measurements: patent US20220396819A1, “METHOD FOR PRODUCING PEPTIDE HAVING PHYSIOLOGICAL ACTIVITY, AND PEPTIDE COMPRISING SHORT LINKER” (priority 2019, published 2022)
# Positions of bridges follow the written chain, without caps; N, C: chain ends. No end group written: not given here.
# What was measured:
# Type in all cases: cell-based
# HuCCT1 cells [1] = experiment: Cell migration activity, Transwell, HuCCT1 cells; settings: 100 ng/mL HGF or 200 ng/mL peptide, 24 hours, FIGS. 13, 14
# Method: HGF has been reported to promote cell migration ability by activating Met (K. Ito, et al. Nat. Commun. 6, 6373, 2015). Therefore, HuCCT1 cell culture was used to evaluate whether the HGF-PAS dimer peptide had the same activity of promoting cell migration as HGF.
# To Transwell inserts for 24-well (pore size 3.0 m, Corning), 20,000 HuCCT1 cells suspended in low serum medium (RPMI 1640 medium with 0.5% FBS) were added. A low serum medium containing 100 ng/mL HGF or 200 ng/mL AET-PAS-aMD4dY-PEG11 was added to the lower layer. After culturing for 24 hours under the conditions of 37° C. and 5% CO2, the Transwell inserts were washed 3 times with PBS and cell-fixed and stained with methanol containing 0.5% Crystal Violet (Nacalai Tesque) for 10 minutes. Immobilized and stained Transwell inserts were washed with distilled water. The cells inside the inserts were removed with a scraper. The cells migrated to the outside of the inserts and stained were photographed in the bright field observation mode of a BZ-X microscope (Keyence).
# The migration ability was calculated as (area of stained region)/(insert area) and as a relative value (Relative migration efficiency) to the value of the non-added group (Mock) (N=2).
# [2] = test system: receptor tyrosine kinase (RTK); experiment: RTK specificity, Proteome Profiler Human Phospho-RTK Array Kit, HEK293E cells; settings: 200 ng/mL peptide or 100 ng/mL HGF, 10 minutes, FIG. 10
# Method: The receptor tyrosine kinase (RTK) specificity of the HGF-PAS dimer peptide was evaluated using Proteome Profiler Human Phospho-RTK Array Kit (R&D Systems).
# HEK293E cells confluent in a 10 cm cell culture dish were starved by culturing for 24 hours in D-MEM medium containing 0.5% FBS (Thermo Fisher Scientific) and penicillin-streptomycin (Nacalai Tesque). The starved HEK293E cells were stimulated with 200 ng/mL AET-PAS-aMD4dY-PEG11 for 10 minutes. As a positive control, 100 ng/mL HGF was similarly stimulated for 10 minutes. As a negative control, PBS was added and stimulated for 10 minutes (Mock group). After removing the medium and washing the cells once with PBS, the cells were lysed by adding 1 mL of Lysis buffer 17 containing a Protease inhibitor cocktail (Nacalai Tesque). The lysate solution was centrifuged at 14,000 G for 5 minutes to obtain the supernatant as a lysate.
# The lysate was analyzed using Proteome Profiler Human Phospho-RTK Array Kit. Molecular Imager ChemiDoc XRS System (Bio-Rad) was used to detect chemiluminescence.
# HuCCT1 cells [3] = experiment: Cell proliferation promoting activity in HuCCT1 cell culture; settings: HGF 35 ng/mL or peptide 40 ng/mL, 5 days, N=3, FIG. 12
# Method: HGF has been reported to promote cell proliferation by activating Met (K. Ito, et al. Nat. Commun. 6, 6373, 2015). Therefore, HuCCT1 cell culture was used to evaluate whether the HGF-PAS dimer peptide had the same activity of promoting cell proliferation as HGF.
# RPMI 1640 medium (Nacalai Tesque) containing 5% FBS was added to a 24-well cell culture plate, and HuCCT1 cells were seeded at 5,000 cell/well. HGF at 35 ng/mL or AET-PAS-aMD4dY-PEG11 at 40 ng/mL was added, and the cells were cultured at 37° C. and 5% CO2 for 5 days. The cells were detached with 0.25% Trypsin/EDTA (Thermo Fisher Scientific) and the number of cells was quantified with Countess Automated Cell Counter (Thermo Fisher Scientific) (N=3).
# HuCCT1 cells [4] = experiment: Wound healing effect, scratch in HuCCT1 cell culture; settings: 33 ng/mL HGF or 100 ng/mL peptide, N=4, FIG. 16
# Method: HGF has been reported to promote cell wound healing ability by activating Met (K. Ito, et al. Nat. Commun. 6, 6373, 2015). Therefore, HuCCT1 cell culture was used to evaluate whether the HGF-PAS dimer peptide would promote wound healing as HGF.
# To 96-well cell culture plates, 50,000 HuCCT1 cells suspended in RPMI 1640 medium with 10% FBS were added per well and incubated overnight under the conditions of 37° C. and 5% CO2. Cells in the center of the culture wells were scraped using a 1000 μL Thermo Scientific ART chip (Thermo Fisher Scientific) and washed with low serum medium (RPMI 1640 medium with 0.5% FBS). Low serum medium containing 33 ng/mL HGF or 100 ng/mL AET-PAS-aMD4dY-PEG11 was added, and the cells were cultured under the conditions of 37° C. and 5% CO2. BioStudio-T (Nikon Corporation) was used for cell observation, and cells were automatically photographed every hour. The rate of wound healing (μm/h) was calculated as ((wound width 1 hour after wound creation)−(wound width 7 hours after wound creation))/6 (N=4).
substance,measurement,setting,value
"HGF: recombinant human HGF (rhHGF, R&D Systems)",cell migration,HuCCT1 cells [1],proportion of the cells migrating to the lower part of the Transwell inserts increased
same,RTK phosphorylation (specificity),[2],Met was specifically phosphorylated
same,proliferation ability relative to the non-added group (Mock),HuCCT1 cells [3],about 2.5 times
same,improvement of the rate of wound healing,HuCCT1 cells [4],about 1.6 times
"AETCRQFNRRTHEVWNLDCGAAPAAPAPAAPAAPAPAAPAAPGCRQFNRRTHEVWNLDC (disulfide 4-19, 44-59; also: PEG11) [AET-PAS-aMD4dY-PEG11]",cell migration,HuCCT1 cells [1],promoted cell migration
same,RTK phosphorylation (specificity),[2],Met was specifically phosphorylated
same,proliferation ability relative to the non-added group (Mock),HuCCT1 cells [3],about 2.5 times
same,improvement of the rate of wound healing,HuCCT1 cells [4],about 1.6 times
